ChEMBL document CHEMBL1177794, “Broad spectrum alkynyl inhibitors of T315I Bcr-Abl” (Bioorg Med Chem Lett, 2010)

Assays:
[1] = target: Serine/threonine-protein kinase D1 (Homo sapiens) (UniProt Q15139); assay: Inhibition of PRKD1 at 10 uM
[2] = target: Citron Rho-interacting kinase (Homo sapiens) (UniProt O14578); assay: Inhibition of CIT at 10 uM; values are per cent of control
[3] = target: Ribosomal protein S6 kinase alpha-6 (Homo sapiens) (UniProt Q9UK32); assay: Inhibition of RSK4 N-terminal domain1 at 10 uM
[4] = target: Serine/threonine-protein kinase Nek6 (Homo sapiens) (UniProt Q9HC98); assay: Inhibition of NEK6 at 10 uM
[5] = target: Serine/threonine-protein kinase DCLK3 (Homo sapiens) (UniProt Q9C098); assay: Inhibition of DCAMKL3 at 10 uM; details: values are per cent of control
[6] = target: Mitogen-activated protein kinase 3 (Homo sapiens) (UniProt P27361); assay: Inhibition of ERK1 at 10 uM; details: values are per cent of control
[7] = target: Serine/threonine-protein kinase SIK3 (Homo sapiens) (UniProt Q9Y2K2); assay: Inhibition of QSK at 10 uM
[8] = target: Serine/threonine-protein kinase 32A (Homo sapiens) (UniProt Q8WU08); assay: Inhibition of YANK1 at 10 uM; details: values are per cent of control
[9] = target: Mast/stem cell growth factor receptor Kit (Homo sapiens) (UniProt P10721); assay: Inhibition of KIT at 10 uM; details: values are per cent of control
[10] = target: Death-associated protein kinase 2 (Homo sapiens) (UniProt Q9UIK4); assay: Inhibition of DAPK2 at 10 uM; details: values are per cent of control
[11] = target: Serine/threonine-protein kinase Nek5 (Homo sapiens) (UniProt Q6P3R8); assay: Inhibition of NEK5 at 10 uM
[12] = target: Tyrosine-protein kinase TXK (Homo sapiens) (UniProt P42681); assay: Inhibition of TXK at 10 uM; details: values are per cent of control
[13] = target: Macrophage-stimulating protein receptor (Homo sapiens) (UniProt Q04912); assay: Inhibition of MST1R at 10 uM
[14] = target: Misshapen-like kinase 1 (Homo sapiens) (UniProt Q8N4C8); assay: Inhibition of MINK at 10 uM
[15] = target: Interleukin-1 receptor-associated kinase 4 (Homo sapiens) (UniProt Q9NWZ3); assay: Inhibition of IRAK4 at 10 uM; values are per cent of control
[16] = tested on: Mast/stem cell growth factor receptor Kit (Homo sapiens), P10721 [A829P]; assay: Inhibition of KIT A829P mutant at 10 uM; details: values are per cent of control
[17] = target: Glycogen synthase kinase-3 beta (Homo sapiens) (UniProt P49841); assay: Inhibition of GSK3B at 10 uM; details: values are per cent of control
[18] = target: RAC-alpha serine/threonine-protein kinase (Homo sapiens) (UniProt P31749); assay: Inhibition of AKT1 at 10 uM; details: values are per cent of control
[19] = target: Mitogen-activated protein kinase kinase kinase 19 (Homo sapiens) (UniProt Q56UN5); assay: Inhibition of YSK4 at 10 uM; details: values are per cent of control
[20] = target: Tyrosine-protein kinase ABL1 (Homo sapiens) (UniProt P00519); assay: Inhibition of non phosphorylated ABL1 at 10 uM; details: values are per cent of control
[21] = tested on: Tyrosine-protein kinase ABL1 (Homo sapiens), P00519 [H396P]; assay: Inhibition of non phosphorylated ABL1 H396P mutant at 10 uM; details: values are per cent of control
[22] = target: Mitogen-activated protein kinase kinase kinase 13 (Homo sapiens) (UniProt O43283); assay: Inhibition of LZK at 10 uM; values are per cent of control
[23] = tested on: BaF3; assay: Antiproliferative activity against mouse BAF3 cells expressing Bcr-Abl T315I mutant; type: functional, cell-based
[24] = target: Calcium/calmodulin-dependent protein kinase type II subunit beta (Homo sapiens) (UniProt Q13554); assay: Inhibition of CAMK2B at 10 uM; details: values are per cent of control
[25] = target: Atypical kinase COQ8B, mitochondrial (Homo sapiens) (UniProt Q96D53); assay: Inhibition of ADCK4 at 10 uM; details: values are per cent of control
[26] = target: Mitogen-activated protein kinase kinase kinase 12 (Homo sapiens) (UniProt Q12852); assay: Inhibition of DLK at 10 uM; values are per cent of control
[27] = target: Tyrosine-protein kinase Lyn (Homo sapiens) (UniProt P07948); assay: Inhibition of LYN at 10 uM; values are per cent of control
[28] = target: Fibroblast growth factor receptor 3 (Homo sapiens) (UniProt P22607); assay: Inhibition of FGFR3 at 10 uM; details: values are per cent of control
[29] = tested on: Receptor-type tyrosine-protein kinase FLT3 (Homo sapiens), P36888 [K663Q]; assay: Inhibition of FLT3 K663Q mutant at 10 uM; details: values are per cent of control
[30] = tested on: Epidermal growth factor receptor (Homo sapiens), P00533 [L858R,T790M]; assay: Inhibition of EGFR L858R, T790M mutant at 10 uM; values are per cent of control
[31] = tested on: Mast/stem cell growth factor receptor Kit (Homo sapiens), P10721 [D816V]; assay: Inhibition of KIT D816V mutant at 10 uM; details: values are per cent of control
[32] = target: Ribosomal protein S6 kinase alpha-5 (Homo sapiens) (UniProt O75582); assay: Inhibition of RPS6KA5 C-terminal domain2 at 10 uM
[33] = tested on: Epidermal growth factor receptor (Homo sapiens), P00533 [L861Q]; assay: Inhibition of EGFR L861Q mutant at 10 uM; values are per cent of control
[34] = target: Tyrosine-protein kinase receptor Tie-1 (Homo sapiens) (UniProt P35590); assay: Inhibition of TIE1 at 10 uM
[35] = target: Tyrosine-protein kinase JAK1 (Homo sapiens) (UniProt P23458); assay: Inhibition of JAK1 JH2 pseudokinase domain at 10 uM; values are per cent of control
[36] = target: Cyclin-G-associated kinase (Homo sapiens) (UniProt O14976); assay: Inhibition of GAK at 10 uM; details: values are per cent of control
[37] = target: Serine/threonine-protein kinase pim-3 (Homo sapiens) (UniProt Q86V86); assay: Inhibition of PIM3 at 10 uM
[38] = target: Ephrin type-A receptor 8 (Homo sapiens) (UniProt P29322); assay: Inhibition of EPHA8 at 10 uM; details: values are per cent of control
[39] = target: Epidermal growth factor receptor (Homo sapiens) (UniProt P00533); assay: Inhibition of EGFR at 10 uM; values are per cent of control
[40] = target: Phosphatidylinositol 5-phosphate 4-kinase type-2 gamma (Homo sapiens) (UniProt Q8TBX8); assay: Inhibition of PIP5K2C at 10 uM
[41] = target: Microtubule-associated serine/threonine-protein kinase 1 (Homo sapiens) (UniProt Q9Y2H9); assay: Inhibition of MAST1 at 10 uM; details: values are per cent of control
[42] = target: Dual specificity protein kinase TTK (Homo sapiens) (UniProt P33981); assay: Inhibition of TTK at 10 uM; details: values are per cent of control

Sequence of Tyrosine-protein kinase receptor Tie-1 (Homo sapiens) (P35590 whole entry, the tested form may be a part): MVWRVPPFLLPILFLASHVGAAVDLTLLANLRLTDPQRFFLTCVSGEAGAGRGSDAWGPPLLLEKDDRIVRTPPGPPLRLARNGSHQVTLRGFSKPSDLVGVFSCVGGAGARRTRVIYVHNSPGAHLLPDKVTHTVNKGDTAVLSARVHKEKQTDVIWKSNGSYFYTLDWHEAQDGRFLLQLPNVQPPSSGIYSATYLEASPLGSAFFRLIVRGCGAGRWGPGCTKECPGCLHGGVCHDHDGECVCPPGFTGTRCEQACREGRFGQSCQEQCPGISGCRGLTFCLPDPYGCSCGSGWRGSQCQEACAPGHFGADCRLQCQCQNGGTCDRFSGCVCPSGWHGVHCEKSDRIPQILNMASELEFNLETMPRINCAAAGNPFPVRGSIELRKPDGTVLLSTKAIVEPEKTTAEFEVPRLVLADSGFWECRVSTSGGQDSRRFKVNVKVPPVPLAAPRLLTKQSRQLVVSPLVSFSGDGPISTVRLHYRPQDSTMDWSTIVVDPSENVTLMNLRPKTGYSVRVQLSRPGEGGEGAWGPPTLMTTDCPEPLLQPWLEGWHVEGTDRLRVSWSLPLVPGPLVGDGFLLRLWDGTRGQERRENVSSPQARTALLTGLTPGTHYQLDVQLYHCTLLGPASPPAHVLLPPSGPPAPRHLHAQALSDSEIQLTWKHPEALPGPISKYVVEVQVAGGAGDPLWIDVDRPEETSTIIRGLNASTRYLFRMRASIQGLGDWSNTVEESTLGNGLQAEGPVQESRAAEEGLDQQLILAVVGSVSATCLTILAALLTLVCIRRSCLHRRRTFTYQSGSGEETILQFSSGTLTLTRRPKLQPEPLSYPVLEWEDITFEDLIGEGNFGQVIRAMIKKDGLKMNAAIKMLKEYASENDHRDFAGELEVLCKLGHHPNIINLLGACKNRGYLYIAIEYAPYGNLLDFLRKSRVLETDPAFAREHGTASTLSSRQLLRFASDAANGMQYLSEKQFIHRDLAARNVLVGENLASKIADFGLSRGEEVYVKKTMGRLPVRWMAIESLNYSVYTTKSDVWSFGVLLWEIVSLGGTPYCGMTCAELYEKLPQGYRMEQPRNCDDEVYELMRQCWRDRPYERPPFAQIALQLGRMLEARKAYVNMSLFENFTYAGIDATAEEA
Sequence of RAC-alpha serine/threonine-protein kinase (Homo sapiens) (P31749 whole entry): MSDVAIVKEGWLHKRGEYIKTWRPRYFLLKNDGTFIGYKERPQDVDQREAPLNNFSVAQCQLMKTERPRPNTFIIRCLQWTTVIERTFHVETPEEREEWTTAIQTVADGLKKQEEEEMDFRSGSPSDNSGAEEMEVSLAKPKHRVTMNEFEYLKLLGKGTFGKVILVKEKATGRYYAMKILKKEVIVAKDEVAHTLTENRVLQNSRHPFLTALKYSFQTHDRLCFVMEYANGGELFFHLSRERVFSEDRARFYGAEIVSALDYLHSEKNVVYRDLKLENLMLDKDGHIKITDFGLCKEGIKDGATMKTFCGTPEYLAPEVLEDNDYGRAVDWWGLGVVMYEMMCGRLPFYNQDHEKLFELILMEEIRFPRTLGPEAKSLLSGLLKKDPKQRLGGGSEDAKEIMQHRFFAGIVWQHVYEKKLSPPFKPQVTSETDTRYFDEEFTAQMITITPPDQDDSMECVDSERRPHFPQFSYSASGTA
Sequence of Serine/threonine-protein kinase Nek5 (Homo sapiens) (Q6P3R8 whole entry): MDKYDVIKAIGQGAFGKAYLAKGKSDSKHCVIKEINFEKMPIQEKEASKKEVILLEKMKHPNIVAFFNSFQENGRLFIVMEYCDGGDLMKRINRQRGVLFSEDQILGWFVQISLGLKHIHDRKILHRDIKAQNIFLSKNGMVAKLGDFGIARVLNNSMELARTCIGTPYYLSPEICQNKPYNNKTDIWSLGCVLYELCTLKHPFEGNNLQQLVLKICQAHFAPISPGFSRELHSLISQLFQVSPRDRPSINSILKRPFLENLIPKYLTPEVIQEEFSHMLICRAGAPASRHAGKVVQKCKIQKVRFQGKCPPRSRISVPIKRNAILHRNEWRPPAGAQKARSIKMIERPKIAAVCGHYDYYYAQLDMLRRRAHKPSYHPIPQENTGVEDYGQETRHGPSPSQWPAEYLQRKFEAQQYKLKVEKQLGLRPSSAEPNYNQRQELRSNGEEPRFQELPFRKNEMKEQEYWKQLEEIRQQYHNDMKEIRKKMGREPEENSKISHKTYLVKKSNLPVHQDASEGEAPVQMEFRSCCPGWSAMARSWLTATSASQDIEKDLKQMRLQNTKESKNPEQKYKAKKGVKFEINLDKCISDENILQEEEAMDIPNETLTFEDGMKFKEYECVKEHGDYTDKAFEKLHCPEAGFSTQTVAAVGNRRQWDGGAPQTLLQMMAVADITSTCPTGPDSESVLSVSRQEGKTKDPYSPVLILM
Sequence of Tyrosine-protein kinase Lyn (Homo sapiens) (P07948 2-512 limits assumed): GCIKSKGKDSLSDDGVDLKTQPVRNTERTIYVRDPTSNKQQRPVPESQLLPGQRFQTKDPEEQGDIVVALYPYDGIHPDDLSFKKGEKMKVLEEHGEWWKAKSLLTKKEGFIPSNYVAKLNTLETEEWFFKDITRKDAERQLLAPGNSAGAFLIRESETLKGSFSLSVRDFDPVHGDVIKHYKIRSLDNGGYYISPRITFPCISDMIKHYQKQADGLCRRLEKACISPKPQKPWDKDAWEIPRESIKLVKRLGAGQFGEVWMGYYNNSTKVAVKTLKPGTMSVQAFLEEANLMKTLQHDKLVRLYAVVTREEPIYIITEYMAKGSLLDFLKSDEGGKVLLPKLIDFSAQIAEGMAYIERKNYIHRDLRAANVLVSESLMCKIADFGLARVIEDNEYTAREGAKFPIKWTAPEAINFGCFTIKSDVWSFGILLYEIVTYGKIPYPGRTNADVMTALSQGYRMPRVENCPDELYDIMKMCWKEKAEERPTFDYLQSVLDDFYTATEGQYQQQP
Sequence of Mast/stem cell growth factor receptor Kit (Homo sapiens), P10721 [D816V] (P10721 whole entry D816V, the tested form may be a part): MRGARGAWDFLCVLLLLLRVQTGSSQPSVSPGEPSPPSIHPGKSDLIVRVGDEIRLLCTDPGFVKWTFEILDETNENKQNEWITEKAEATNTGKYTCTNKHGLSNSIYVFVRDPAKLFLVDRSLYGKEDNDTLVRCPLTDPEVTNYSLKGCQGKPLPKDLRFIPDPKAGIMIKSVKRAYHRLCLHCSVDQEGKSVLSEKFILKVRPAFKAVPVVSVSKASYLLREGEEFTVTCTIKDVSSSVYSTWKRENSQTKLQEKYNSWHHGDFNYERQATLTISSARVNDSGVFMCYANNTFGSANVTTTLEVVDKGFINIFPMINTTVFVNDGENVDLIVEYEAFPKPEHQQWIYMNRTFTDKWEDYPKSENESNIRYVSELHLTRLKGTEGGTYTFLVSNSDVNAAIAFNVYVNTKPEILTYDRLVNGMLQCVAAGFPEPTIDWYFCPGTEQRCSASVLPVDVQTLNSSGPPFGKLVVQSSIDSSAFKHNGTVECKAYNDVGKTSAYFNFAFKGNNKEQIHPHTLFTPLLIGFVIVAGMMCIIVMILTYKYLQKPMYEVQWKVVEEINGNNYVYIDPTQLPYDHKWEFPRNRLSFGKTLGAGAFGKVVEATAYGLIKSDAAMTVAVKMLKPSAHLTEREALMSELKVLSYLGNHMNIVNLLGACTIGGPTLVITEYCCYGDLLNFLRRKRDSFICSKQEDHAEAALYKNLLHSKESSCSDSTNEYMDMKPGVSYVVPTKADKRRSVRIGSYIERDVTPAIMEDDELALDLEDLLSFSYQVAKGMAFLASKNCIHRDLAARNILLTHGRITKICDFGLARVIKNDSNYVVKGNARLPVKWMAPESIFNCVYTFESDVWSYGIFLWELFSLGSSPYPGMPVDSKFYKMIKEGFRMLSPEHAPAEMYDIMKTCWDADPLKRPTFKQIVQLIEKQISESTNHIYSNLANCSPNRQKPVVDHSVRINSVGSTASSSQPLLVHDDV
Sequence of Interleukin-1 receptor-associated kinase 4 (Homo sapiens) (Q9NWZ3 whole entry): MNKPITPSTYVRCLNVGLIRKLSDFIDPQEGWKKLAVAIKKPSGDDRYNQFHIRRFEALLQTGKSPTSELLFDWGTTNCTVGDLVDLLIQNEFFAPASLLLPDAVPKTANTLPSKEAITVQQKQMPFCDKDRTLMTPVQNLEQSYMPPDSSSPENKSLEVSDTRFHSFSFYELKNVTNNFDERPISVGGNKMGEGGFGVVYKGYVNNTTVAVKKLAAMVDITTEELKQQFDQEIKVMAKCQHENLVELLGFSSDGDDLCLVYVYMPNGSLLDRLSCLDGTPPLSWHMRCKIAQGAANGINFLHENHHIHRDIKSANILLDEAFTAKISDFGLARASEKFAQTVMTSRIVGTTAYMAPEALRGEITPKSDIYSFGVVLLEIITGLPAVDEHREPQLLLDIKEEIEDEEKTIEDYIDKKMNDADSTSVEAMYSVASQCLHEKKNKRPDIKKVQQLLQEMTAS
Sequence of Death-associated protein kinase 2 (Homo sapiens) (Q9UIK4 whole entry, looked up): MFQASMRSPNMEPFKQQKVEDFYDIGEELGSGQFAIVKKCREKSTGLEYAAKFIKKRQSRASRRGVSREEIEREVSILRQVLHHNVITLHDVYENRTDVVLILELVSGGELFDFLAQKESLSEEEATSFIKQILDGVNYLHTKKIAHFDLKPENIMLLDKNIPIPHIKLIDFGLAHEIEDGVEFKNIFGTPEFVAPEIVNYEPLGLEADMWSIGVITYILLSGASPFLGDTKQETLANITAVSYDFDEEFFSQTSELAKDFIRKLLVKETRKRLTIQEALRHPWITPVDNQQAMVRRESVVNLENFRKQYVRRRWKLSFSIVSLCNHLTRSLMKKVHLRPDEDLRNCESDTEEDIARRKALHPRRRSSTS

CCN1CCN(Cc2ccc(NC(=O)c3ccc(C)c(C#Cc4cccnc4)c3)cc2C(F)(F)F)CC1
inhibition [1]: 51%
level, % of control [2]: 0%
inhibition [3]: 47%
inhibition [4]: 90%
residual binding, % of control [5]: 100%
residual binding, % of control [6]: 100%
inhibition [7]: 70%
residual binding, % of control [8]: 81%
residual binding, % of control [9]: 0%
residual binding, % of control [10]: 100%
inhibition [11]: 4.8%
residual binding, % of control [12]: 0.3%
inhibition [13]: 68%
inhibition [14]: 2.5%
level, % of control [15]: 72%
residual binding, % of control [16]: 27%
residual binding, % of control [17]: 99%
residual binding, % of control [18]: 81%
residual binding, % of control [19]: 0.1%
residual binding, % of control [20]: 0%
residual binding, % of control [21]: 0%
level, % of control [22]: 7.4%
EC50 [23]: 92 nM
residual binding, % of control [24]: 100%
residual binding, % of control [25]: 85%
level, % of control [26]: 9.8%
level, % of control [27]: 0.05%
residual binding, % of control [28]: 0.3%
residual binding, % of control [29]: 0%
level, % of control [30]: 100%
residual binding, % of control [31]: 2%
inhibition [32]: 100%
level, % of control [33]: 0.2%
inhibition [34]: 1.6%
level, % of control [35]: 90%
residual binding, % of control [36]: 7.4%
inhibition [37]: 100%
residual binding, % of control [38]: 0%
level, % of control [39]: 3%
inhibition [40]: 100%
residual binding, % of control [41]: 100%
residual binding, % of control [42]: 16%

CCN1CCN(Cc2ccc(NC(=O)c3ccc(C)c(C#Cc4cnc5[nH]ccc5c4)c3)cc2C(F)(F)F)CC1
inhibition [1]: 63%
level, % of control [2]: 0%
inhibition [3]: 28%
inhibition [4]: 73%
residual binding, % of control [5]: 100%
residual binding, % of control [6]: 96%
inhibition [7]: 77%
residual binding, % of control [8]: 98%
residual binding, % of control [9]: 0%
residual binding, % of control [10]: 100%
inhibition [11]: 0.65%
residual binding, % of control [12]: 0.25%
inhibition [13]: 76%
inhibition [14]: 5.4%
level, % of control [15]: 64%
residual binding, % of control [16]: 24%
residual binding, % of control [17]: 90%
residual binding, % of control [18]: 41%
residual binding, % of control [19]: 0.1%
residual binding, % of control [20]: 0.1%
residual binding, % of control [21]: 0.05%
level, % of control [22]: 7.8%
EC50 [23]: 80 nM
residual binding, % of control [24]: 100%
residual binding, % of control [25]: 82%
level, % of control [26]: 3.8%
level, % of control [27]: 0.05%
residual binding, % of control [28]: 0.15%
residual binding, % of control [29]: 0%
level, % of control [30]: 100%
residual binding, % of control [31]: 0.65%
inhibition [32]: 97%
level, % of control [33]: 0%
inhibition [34]: 1.1%
level, % of control [35]: 74%
residual binding, % of control [36]: 2%
inhibition [37]: 100%
residual binding, % of control [38]: 0%
level, % of control [39]: 0.3%
inhibition [40]: 100%
residual binding, % of control [41]: 100%
residual binding, % of control [42]: 2%
